From ChEMBL document CHEMBL4431316, “New 6-Aminoquinoxaline Derivatives with Neuroprotective Effect on Dopaminergic Neurons in Cellular and Animal Parkinson Disease Models” (J Med Chem, 2016) come the findings set out here.

Calls of active or inactive are those of the source. The rule behind the calls is not given here.

The species entered for the test is Rattus norvegicus. As to the kind of experiment: Neuroprotective activity in Sprague-Dawley rat DA neuron death PD model assessed as inhibition of calcium mobilization at 50 uM after 10 days in presence of N-type voltage gated calcium channel blocker omega-conotoxin M7A. It is filed as functional. A general note: A change in cytosolic calcium serves as a functional read-out for many receptors and channels.

Regarding `Nc1ccc2ncc(-c3ccccc3)nc2c1`, the inhibition entry was “Active”.
